Experimental data: patent US8557864B2, “Agent having neurotrophic factor-like activity” (Nagoya Industrial Science Research Institute, priority 2007, dated 2013)

tested on: mice under chronic mild stress; assay: Tail suspension test comparing compound 8 and fluvoxamine after chronic mild stress; type: in vivo; conditions: Exp. 2 (1 week after stress); compound 8 500 μg/kg, fluvoxamine 1000 μg/kg intraperitoneally once per day
Procedure: 7-week-old male ddY strain mice fed in one cage for 4 mice were first subjected to forced swimming for 15 minutes in the same manner as stress in Example 2 (behavior test of mice under stress) (1) described in the paragraph [0063] in the specification. Then, stress for 1 week using 3 kinds of cages was regarded as 1 cycle, and the stress was applied for 3 cycles (3 weeks) and chronic mild stress (CMS) was applied. The compound 8 and fluvoxamine were administered to mice immediately after stress in Exp. 1, 1 week after stress in Exp. 2, and 2 weeks after stress in Exp. 3, respectively, and tail suspension tests were carried out on the respective test groups. In each test group, the compound 8 was adjusted in concentration so as to have each of the doses of […] and fluvoxamine was adjusted in concentration so as to have a dose of 1000 μg/kg, by dissolving in 0.1% DMSO, and each dose of the compound 8 and fluvoxamine were intraperitoneally injected to mice once per day from the time immediately after stress. Further, to 7-week-old male ddY strain mice fed in one cage for 4 mice without stress, the compound 8 and fluvoxamine were administered to carry out the tail suspension tests in the same manner as the stressed mice. FIG. 31 show the result. A significance test was performed in a Student's t-test (*). […] “DAEE” denotes the compound 8 and “Flu” denotes fluvoxamine.

Row | Structure (SMILES) | effect on depressive symptom (immobility time)
1 | COCCCC/C(=N\OCCN)c1ccc(C(F)(F)F)cc1 [fluvoxamine] | an effect could not be recognized

same assay, conditions: Exp. 3 (2 weeks after stress); fluvoxamine 1000 μg/kg intraperitoneally once per day

Row | Structure (SMILES) | effect on depressive symptom (immobility time)
2 | COCCCC/C(=N\OCCN)c1ccc(C(F)(F)F)cc1 [fluvoxamine] | recognized only in Exp. 3

tested on: MAP kinases; assay: Measurement of activation of MAP kinases in cultured nerve cells (western immunoblotting); type: cell-based; conditions: fetal rat cerebral cortex nerve cells, compound 500 μg/ml, 30 minutes, relative to control
Procedure: Activation of MAP kinases was measured on respective compounds in Table 1 including the compound obtained in Production Example with western immunoblotting as follows. Nerve cells were dispersed from a cerebral cortex of a 17-day-old fetal rat and the nerve cells were cultured in a Dulbecco's modified eagle medium (DMEM) containing 5%; fetal bovine serum for 1 day. A culture solution was exchanged to a serum-free medium (B27 supplement added Neurobasal, Invitrogen Corporation), and the nerve cells were cultured in a culture petri dish coated with polyornithine at a density of 20,000 to 40,000 cells/cm^2. Three days later, each of the compounds in Table 1 was added thereto, and culture for 30 minutes was continued. Then, cells were recovered on ice with a solution of a Tris-HCL buffer as a base containing a phosphatase inhibitor. The protein concentration of the obtained cell extraction was determined using a BCA Protein Assay Kit (TAKARABIO INC.), a constant amount (3 μg for MAP kinase measurement, 5 μg for phosphorylated MAP kinase measurement) of the protein was electrophoresed with a polyacrylic amide gel. The protein was transcribed to a PVDF membrane from the gel after electrophoresis, and western immunoblotting was carried out using the primary antibodies: an anti-MAP kinase antibody (Cell Signaling Technology, Inc.) and an antiphosphorylated MAP kinase antibody (Cell Signaling Technology, Inc.), respectively. Subsequently, an enzyme activity was subjected to color development by being reacted with the secondary antibody: an alkaline phosphatase labeled anti-rabbit IgG antibody (Promega KK) to measure MAP kinases and phosphorylated MAP kinases. In addition, each compound was dissolved in 0.7% DMSO and adjusted to have a concentration of 500 μg/ml. A control was added with a phosphoric acid buffer containing 0.1% DMSO in the same amount as the compound.
The above obtained concentration measurement of the electrophoresis gel band was digitalized by calculating an intensity with Image J (BioArts International, Inc.). The numerical value of MAP kinases of each compound was divided by the numerical value of the control's MAP kinases, and the numerical value of phosphorylated MAP kinases of each compound was divided by the numerical value of the control's phosphorylated MAP kinases to find a ratio of the MAP kinases of each compound to the control and a ratio of the phosphorylated MAP kinases of the each compound to the control. Then, the obtained ratio of the phosphorylated MAP kinases to the control was divided by the obtained ratio of the MAP kinases to the control to find a ratio of the phosphorylated MAP kinases to the MAP kinases and graphs were formed and shown in FIGS. 1 to 3. Compound 1, compound 6, compound 11, compound 16, compound 21 and compound 36 in Table 1 were used from products made by Wako Pure Chemical Industries, Ltd.

Row | Structure (SMILES) | ratio of phosphorylated MAP kinases to MAP kinases
3 | CCCCCCC/C=C/C(=O)O [Compound 6, trans-2-decenoic acid] | high activities
4 | CCOC(=O)CC(C)CCCC(C)C (stereo not drawn) [Compound 78, 3,7-dimethyloctanoic acid ethyl ester] | high activities
5 | CCCCCCC/C=C/COC(=O)/C=C/CCCCCCC [Compound 47, trans-2-decenoic acid-trans-2-decenyl ester] | twice or more
6 | CCCCCCC/C=C/C(=O)OC(C)C [Compound 54, trans-2-decenoic acid isopropyl ester] | twice or more
7 | CCCCCCCCCC(=O)OCC [Compound 3, decanoic acid ethyl ester] | high activities
8 | C=CCCCCCCCC(=O)OC [Compound 12, trans-9-decenoic acid methyl ester] | high activities
9 | CCCCCCC/C=C/C(=O)OC1CCCCC1 [Compound 48, trans-2-decenoic acid cyclohexyl ester] | twice or more
10 | C=CCCCCCCCCC(=O)OCC [Compound 23, trans-10-undecenoic acid ethyl ester] | high activities
11 | C=CCCCCCCCC(=O)OCC [Compound 13, trans-9-decenoic acid ethyl ester] | high activities
12 | CCCCCCCCCC(=O)OC [Compound 2, decanoic acid methyl ester] | high activities
13 | CCOC(=O)/C=C(\C)CCC=C(C)C [Compound 77, geranic acid ethyl ester] | high activities
14 | CCCCCCC/C=C/C(=O)OCCCCCCCC [Compound 53, trans-2-decenoic acid octyl ester] | twice or more
15 | C=CCCCCCCCCC(=O)OC [Compound 22, trans-10-undecenoic acid methyl ester] | high activities
16 | CCCCCCC/C=C/C(=O)OC [Compound 7, trans-2-decenoic acid methyl ester] | twice or more

same assay, conditions: fetal rat cerebral cortex nerve cells, compound 500 μg/ml, 30 minutes, relative to control; listed as trans-2-decenic acid methyl ester

Row | Structure (SMILES) | ratio of phosphorylated MAP kinases to MAP kinases
17 | CCCCCCC/C=C/C(=O)OC [Compound 7, trans-2-decenoic acid methyl ester] | 6 times

tested on: mice; assay: Voluntary alternation behavior test (Y-maze test) of mice administered with trimethyltin; type: in vivo; conditions: TMT 2 mg/kg weight intraperitoneally
Procedure: The voluntary alternation behavior test (Y-maze test) is one kind of a behavior test using a Y-shaped maze constituted with three arms. First, a mouse is placed on the tip of one arm out of the three arms, letting the mouse freely explore in the maze over 8 minutes, and arms where the mouse transferred are recorded in order. Then, the number of times of transferring to each arm (total arm selection number (total arm entries)) and the number of sequentially selecting three different arms (number of alternation behavior (number of spontaneous behavior)) are counted.
Trimethyltin (hereinafter referred to as “TMT”) is an organic metal compound having neurotoxicity, and acute nerve cell death is cased particularly in granular nerve cells of the hippocampus dentate gyrus, which thus affects memory and learning abilities of a mouse.
The voluntary alternation tests (Y-maze tests) were performed on 1) test groups to which the compound 8 was singly administered and 2) test groups to which TMT and the compound 8 were administered. In the test groups to which the compound 8 was singly administered, the compound 8 was dissolved in 0.1% DMSO to adjust a concentration so as to have each of the doses of 100 and 500 μg/kg and intraperitoneally injected to 6 mice in every administration example each in a dose of 0.25 mL. In 0 μg/kg weight administration examples of controls, 0.25 mL of a phosphoric acid buffer containing 0.1% DMSO was intraperitoneally injected in each time. The voluntary alternation tests (Y-maze tests) were performed on each of the administration groups after the elapse of 2 hours from intraperitoneal administration. In the test group in which TMT and the compound 8 were administered, TMT (2 mg/kg weight) was intraperitoneally administered to a mouse, and the compound 8 was intraperitoneally administered in the same manner as the test groups in which the compound 8 was singly administered after 2 days have passed, and the voluntary alternation test (Y-maze test) was performed after the elapse of 2 hours. FIG. 32 show the results. Significance tests were performed in a Turkey's test (*, ##) and a Student's t-test (++). “DAEE” denotes the compound 8.

Row | Structure (SMILES) | voluntary alternation behavior after TMT treatment
18 | [CH3][Sn+]([CH3])[CH3] [TMT, Trimethyltin, reference compound] | significantly decreased
